Earlier results, collected in paper PMC3719006, “Safety, tolerability, pharmacokinetics, and pharmacodynamics of a long-acting release (LAR) formulation of pasireotide (SOM230) in patients with gastroenteropancreatic neuroendocrine tumors: results from a randomized, multicenter, open-label, phase I study” (Cancer Chemotherapy and Pharmacology, 2013).

Key:
[1] = test system: sst2 receptor
Excerpt: (§1) Somatostatin inhibits hormone release and cell growth through binding to specific, cell surface, G-protein–coupled receptors, of which five distinct subtypes (sst1–5) have been characterized. In pancreatic and gastrointestinal endocrine tumors, sst2 expression predominates, although multiple other subtypes have also been found. […] Development of the somatostatin an ...

[2] = test system: sst5 receptor
Excerpt: as §1

[3] = test system: somatostatin receptor subtypes (sst1–3,5); set-up: method as in PMID 17977644; conditions: four of the five somatostatin receptor subtypes
[4] = SC formulation
[5] = native somatostatin
Description: Somatostatin inhibits hormone release and cell growth through binding to specific, cell surface, G-protein–coupled receptors, of which five distinct subtypes (sst1–5) have been characterized. In pancreatic and gastrointestinal endocrine tumors, sst2 expression predominates, although multiple other subtypes have also been found. The limited clinical use of native somatostatin, because of its very short half-life (<3 min) and the impact of rebound hypersecretion, has necessitated the development of more clinically useful analogs. Development of the somatostatin an ...

octreotide
binding affinity [1]: binds with high affinity
binding affinity [2]: lower binding affinity

pasireotide
binding affinity [3]: binds with high affinity
PK exposure difference between patients with GEP NET and healthy volunteers [4]: twofold

somatostatin: native hormone that inhibits hormone release and cell growth via sst1–5
half-life [5]: < 3 min
